# Laboratory results as given in US6958231B2, “Variants of Erwinia-type creatinase” (Roche Diagnostics Operations, Inc., priority 2001, dated 2005).
# Numbering of substitutions follows the chain as printed.
# How the values were obtained:
# [1] = biological target: T1, Erwinia sp. (DSM 97-934) creatinase variant CTsd7, F59W, N130D, M203V, I278T, F395L, SEQ ID NO: 22 (Shinella sumterensis, UniProt A0AA50CTE0, F395L/F59W/I278T/M203V/N130D); assay: Km determination of creatinase variant with creatine (coupled enzymatic assay); type: biochemical; settings: in words, CTsd7 vs wild type Erwinia creatinase
# T1 construct: variant CTsd7
# T1 sequence (A0AA50CTE0 1-404 F59W/N130D/M203V/I278T/F395L): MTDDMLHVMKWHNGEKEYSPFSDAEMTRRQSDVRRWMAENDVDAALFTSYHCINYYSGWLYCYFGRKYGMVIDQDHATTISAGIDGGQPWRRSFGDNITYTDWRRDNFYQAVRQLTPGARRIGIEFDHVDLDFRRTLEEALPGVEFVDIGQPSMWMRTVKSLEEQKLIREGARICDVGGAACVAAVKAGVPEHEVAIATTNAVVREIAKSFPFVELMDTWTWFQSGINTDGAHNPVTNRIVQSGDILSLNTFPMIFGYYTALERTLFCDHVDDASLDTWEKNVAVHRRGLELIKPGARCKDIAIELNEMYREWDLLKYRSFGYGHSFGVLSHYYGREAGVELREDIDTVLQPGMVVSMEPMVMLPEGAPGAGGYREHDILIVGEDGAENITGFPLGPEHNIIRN
# Method: (§1) The activity assay for creatinase and its variants was performed by using creatine as substrate and a coupled enzymatic reaction according to Guder, W. G., et al., J Clin Chem Clin Biochem 24 (1986) 889-902.
# (§2) The reaction mixture was set up by combining the following reagents:
# (§3) The assay for creatinase was carried out at 25° C. and at the wavelength of 546 nm for 10 min. ΔE was calculated from the measurement points of 6 to 10 min.
# (§4) For KM determination, creatinase activity was determined according to the assay procedure described in Example 3 using six different concentrations of creatine substrate: 90 mM, 45 mM, 22.5 mM, 11.3 mM, 5.6 miM and 2.8 mM.
# [2] = biological target: T2, Erwinia sp. (DSM 97-934) creatinase variant CTsd2, N130D, M203V, I278T, F395L, SEQ ID NO: 20 (Shinella sumterensis, UniProt A0AA50CTE0, F395L/I278T/M203V/N130D); assay: as above; type: biochemical; settings: in words, CTsd2 vs wild type Erwinia creatinase
# T2 construct: variant CTsd2
# T2 sequence (A0AA50CTE0 1-404 N130D/M203V/I278T/F395L): T1 sequence (A0AA50CTE0 1-404 F59W/N130D/M203V/I278T/F395L) with W59F
# Method: as §1, §2, §3, §4
# [3] = tested on: creatinase from Pseudomonas putida; settings: in words; cited from earlier work
smiles,measurement,setting,value
CN(CC(=O)O)C(=N)N [creatine],Km value compared to wild type,[1],much lower
same,Km value compared to wild type,[2],much lower
same,Km value,[3],rather high
